{"source": "BindingDB's records for doi:10.1021/jm0211063", "about": "(Sapienza University of Rome, 2003)", "key": {"[1]": {"biological_target": "T1, Gag-Pol polyprotein [588-1127,Y768C]/[588-1147,Y768C] (Human immunodeficiency virus 1, UniProt P04585, Y768C)", "T1 construct": "588-1127; 588-1147", "assay": "HIV-1 RT Assay", "settings": "pH 7.8; 37 °C"}, "[2]": {"biological_target": "T2, Gag-Pol polyprotein [588-1027,K690N]/[588-1147,K690N] (Human immunodeficiency virus 1, UniProt P04585, K690N)", "T2 construct": "588-1027; 588-1147", "assay": "HIV-1 RT Assay", "settings": "pH 7.8; 37 °C"}}}
{"smiles": "NC(=O)c1[nH]c2ccc(Cl)cc2c1S(=O)(=O)c1ccccc1", "note": "[5Cl3PhSO2-2IndolCONH2]", "values": [{"measurement": "IC50", "setting": "[1]", "value": 160, "unit": "nM"}, {"measurement": "IC50", "setting": "[2]", "value": "> 5000", "unit": "nM"}]}
{"smiles": "Cc1ccc(S(=O)(=O)c2c(C(N)=O)[nH]c3ccc(Cl)cc23)cc1", "note": "[5-chloro-3-[(4-methylbenzene)sulfonyl]-1H-indole-2-carboxamide]", "values": [{"measurement": "IC50", "setting": "[1]", "value": 110, "unit": "nM"}, {"measurement": "IC50", "setting": "[2]", "value": "> 5000", "unit": "nM"}]}
{"smiles": "Cc1cc(C)cc(S(=O)(=O)c2c(C(N)=O)[nH]c3ccc(Cl)cc23)c1", "note": "[5-chloro-3-[(3,5-dimethylbenzene)sulfonyl]-1H-indole-2-carboxamide]", "values": [{"measurement": "IC50", "setting": "[1]", "value": 130, "unit": "nM"}, {"measurement": "IC50", "setting": "[2]", "value": "> 5000", "unit": "nM"}]}
